# Reference: patent US20170204187A1, “METHODS OF TREATING AND PREVENTING CANCER DRUG RESISTANCE” (Genentech, Inc., priority 2014, published 2017)
# Entries after “also recorded” stand apart in the source; their conditions may differ.
# Key:
# [1] = system: 624 melanoma cells made resistant to PLX4032; assay: pAKT in PLX4032-resistant 624 melanoma cells (FIG. 8B-C); type: cell-based; conditions: treated with PLX4032
# Experimental: FIG. 8 A-C.|Activation of PI3K represents an alternative mechanism of B-raf-mutant melanomas. A, A synthetic lethal chemical screen identified PI3K-dependent resistance to PLX4032. […] Co-treatment with a […] was needed to growth arrest the 624 ml VemR cells in the presence of PLX4032.
# B-raf mutant melanoma = conditions: cited from earlier work
# LOX-IMVI VemR tumors = assay: In vivo tumor volume, vemurafenib resistant tumors; conditions: for tumor volume / efficacy: combination treatment of vemurafenib and BGJ398
# Experimental: (§1) FIG. 4A-C.|The LOX-IMVI VemR cell line has FGFR-mediated vemurafenib resistance in vivo. A, LOX-IMVI cells (parental cell line) are sensitive to vemurafenib.
# (§2) The vemurafenib resistance and recovery of the LOX-IMVI VemR cell line was also studied in vivo. The tumor volume (mm^3) was measured in LOX-IMVI (parental, vemurafenib sensitive) tumors and in LOX-IMVI VemR (vemurafenib resistant) tumors in the presence of vemurafenib, BGJ398, or vemurafenib and BGJ398 ([…]).
# LOX-IMVI tumors = assay: In vivo tumor volume, parental vemurafenib sensitive tumors; conditions: for tumor volume: vemurafenib 25 mg/kg
# Experimental: as §1, §2
# LOX-IMVI VemR cells = assay: In vitro combination study vemurafenib + BGJ398, Vem-resistant cell outgrowth (FIG. 3A); type: cell-based
# LOX-IMVI VemR cell line = assay: LOX-IMVI VemR resensitization to vemurafenib by FGFR antagonists (FIG. 2B); type: cell-based; conditions: for effect on the cell line / resensitization to vemurafenib: FGFR antagonist 1 μM in combination with 5 μM vemurafenib
# Experimental: FIG. 2A-E.|A cell line (“LOX-IMVI VemR”) was engineered to be resistant to vemurafienib. A, An image of an immunoblot of 11 cell lines probed for FGFR1 expression. B, The LOX-IMVI VemR cell line is not affected by 5 μM vemurafenib (i.e., “PLX”) as shown in the DMSO plot; however, the cell line is affected by 5 μM vemurafenib in combination with an antagonist of FGFR signalling (i.e., BGJ398, PD173074, and AP24534).
# The Lox-IMVI VemR cell line was used as the model of acquired resistance in B-raf mutant melanoma. 11 cell lines were tested for FGFR1 expression using a Western blot. Of the cell lines tested, FGFR1 expression was detected in the LOX-IMVI (vemurafenib sensitive) and LOX-IMVI VemR (vemurafenib resistant) lines (FIG. 2A).
# [2] = system: B-raf mutant melanoma cell lines; assay: Secreted factor / FGF rescue screen, melanoma lines (FIG. 1, FIG. 15B); type: cell-based; conditions: for rescue of tumor cells from B-raf and MEK antagonists: melanoma cell line, FIG. 1B
# Experimental: (§3) FIG. 1A-D.|Factors secreted by tumor cells and/or the tumor microenvironment contribute to drug resistance through activation of cell-surface receptors. […] D, Secreted growth factors which promote resistance to PLX4032 reactivate MAPK and PI3K pathways. Activation of MAPK by FGF2, MAPK and AKT by HGF and AKT by NRG1 and SCF are shown in 624 MEL cells in the presence of PLX4032. Treatments were 5 μM PLX4032 for 24 hours and 50 ng·mL FGF2, HGF, NRGB1, or SCF for 10 minutes.
# (§4) FIG. 15 A-C.|Screen of 10 melanoma cell lines and 10 breast cancer lines was performed to determine the role of FGF signalling in drug resistance. […] C, Summary of FGF receptors, their subfamily, and their ligands.
# (§5) FGF signalling and resistance was studied in 10 HER2+ breast cancer cell lines and in 10 B-raf mutant melanoma cell lines (FIG. 15). 7 of the 10 HER2+ breast cancer cell lines were rescued by FGF2 (FIG. 15A). 8 of the 10 B-raf mutant melanoma cell lines were rescued by FGF2 (FIG. 15B). Subsequent analysis determined that 50-70% of the melanoma lines with the V600E mutation were rescued by FGF2 (n=30).
# 624 MEL cells = assay: Immunoblot of MAPK and PI3K pathway reactivation by secreted growth factors (FIG. 1D); type: cell-based; conditions: 5 μM PLX4032 for 24 hours; 50 ng·mL factor for 10 minutes
# Experimental: as §3
# LOX-IMVI cells = assay: Secreted factor rescue screen on LOX-IMVI (FIG. 23); type: cell-based
# Description: FIG. 23 A-C.|Vemurafenib resistant and sensitive cell lines can be used to determine and anticipate paths to resistance in patients. LOX-IMVI cells were rescued by FGF1, FGF2, EGF, and HGF in the screen. A, LOX-IMVI VemR cells were re-sensitized to PLX4032 by FGFR inhibition. B, Dual resistant LOX-IMVI VemR/FGFRi (i.e., resistant to vemurafenib and FGFR inhibitor) cells were re-sensitized to PLX4032 by EGFR inhibition. C, Triple resistant LOX-IMVI VemR/FGFRi/Erlotinib cells were re-sensitized to PLX4032 by MET inhibition.
# B-raf-mutant melanomas = assay: Immunoblot of MAPK reactivation in FGF2-mediated rescue (FIG. 7A); type: cell-based
# Description: FIG. 7 A-D.|Reactivation of MEK/ERK downstream of B-raf is a core mechanism of resistance in B-raf-mutant melanomas. A, MAPK signalling is required for FGF2-mediated resistance as shown by immunoblots. […] C, A synthetic lethal chemical screen was utilized to identify signalling pathways mediating resistance to PLX4032 in 12 acquired-resistance melanoma cell lines. […] D, Examples of the synthetic lethal chemical screen shown in FIG. 7C on specific cell lines.
# [3] = system: HER2+ breast cancer cells; assay: Immunoblot of downstream signalling after FGF2 exposure (FIG. 16); type: cell-based; conditions: FGF2 50 ng/mL for 10 minutes or 24 hours, with or without lapatinib 2 μM
# Experimental: FIG. 16 A-B.|FGF2 reactivates key signalling pathways to promote resistance and stimulates sustained activation of downstream signaling. A, An immunoblot of cells exposed to FGF2 for 10 min compared to cells absent exposure. B, An immunoblot of cells exposed to FGF2 for 24 hrs compared to cells absent FGF2 exposure.
# Furthermore, it was determined that FGF2 reactivates key signalling pathways to promote resistance (FIG. 16). This was shown in a cell assay wherein HER2+ breast cancer cells were exposed to FGF2 (50 ng·mL) for 10 minutes in the presence or absence of lapatinib (2 μM) (FIG. 16A). Similarly, an assay was performed wherein HER2+ breast cancer cells were exposed to FGF2 (50 ng/mL) for 24 hours in the presence or absence of lapatinib (2 μM) (FIG. 16B).
# [4] = system: HER2+ breast cancer cell lines; assay: FGF rescue screen, breast cancer lines (FIG. 15A); type: cell-based; conditions: 10 HER2+ breast cancer cell lines
# Experimental: as §4, §5
# HCC1569 cells = assay: Innate resistance model, sensitization to lapatinib (FIG. 20A); type: cell-based; conditions: 100 nM BGJ398 with 5 μM lapatinib
# Experimental: (§6) FIG. 20 A-C.|HER2+ breast cancer models of innate resistance. A, FGFR inhibitor (BGJ398) sensitizes HCC1569 cells to lapatinib. B, FGFR inhibitor (BGJ398) sensitizes MDA-MB-453 cells to lapatinib.
# (§7) The innate resistant HER2+ breast cancer cell lines were HCC1569 and MDA-MB-453. HC1569 expressed FGFR2 (detected by Western blot) and secreted FGF2 (detected by ELISA). FGFR ECD chimeras from the HCC1569 line were sensitized to lapatinib. Furthermore, HC1569 cells that were treated with FGFR inhibitor(s) sensitized the cells to lapatinib. […] MDA-MB-453 cells that were treated with FGFR inhibitor(s) sensitized the cells to lapatinib.
# (§8) HCC1569 and MDA-MB-453 cells were treated with 100 nM afatinib, 100 nM crizotinib, or 100 nM BGJ398 in the presence or absence of 5 μM lapatinib (FIGS. 20A and 20B).
# [5] = system: HER2+ breast cancer cell lines (AU565, BT-474, HCC1954, SK-BR-3, and UACC-893); assay: Block of FGF2 rescue in lapatinib/FGF2 treated cells (FIG. 19A); type: cell-based; conditions: cells treated with lapatinib and FGF2, then FGFR pan inhibitor
# Experimental: FIG. 19 A-D.|FGFR4 mediates FGF2 rescue in HER2+ breast cancer. A, Percent rescue of cells treated with lapatinib and FGF2. B, Immunoblot of cells treated with lapatinib and FGF2. C, TCGA breast cancer samples (n=913) show high […] levels in breast cancer. D, HER2+ breast cancer cells are enriched for high FGFR4.
# HER2+ breast cancer cell lines (AU565, BT-474, HCC1954, SK-BR-3, and UACC-893) were treated with lapatinib and FGF2. Thereafter, the cells were either exposed to siRNA targeting FGFR1, FGFR2, FGFR3, or FGFR4 or exposed to the FGFR pan inhibitor BGJ398 (FIG. 19A). […] Immunoblots were also performed to detect IP/pTyr/IB:FGFR4, FGFR4, pERK, ERK, and actin (control) in cells treated with lapatinib in the presence and absence of FGF2 (FIG. 19B).
# SK-MEL-24 cell line = assay: In vitro combination study vemurafenib + BGJ398 (FIG. 3A); type: cell-based; conditions: PLX4032 combined with FGFR antagonist
# Description: (§9) FIG. 3A-B.|FGFR-inhibition prevents Vem-resistant cell outgrowth. […] B, Expression patterns of select proteins are shown on West Blots in the presence of vemurafenib (PLX4032), an antagonist of FGFR signalling (NV-BGJ398), and/or FGF2.
# SK-MEL-3 cell line = assay: as above; type: cell-based; conditions: PLX4032 combined with FGFR antagonist
# Description: as §9
# MDA-MB-453 cells = assay: Innate resistance model, sensitization to lapatinib (FIG. 20B); type: cell-based; conditions: 100 nM BGJ398 with 5 μM lapatinib
# Experimental: as §6, §7, §8
# [6] = system: HER2+ breast cancer models of innate resistance; assay: Tumor volume, lapatinib + FGFR inhibitor (FIG. 20C); type: in vivo; conditions: combination treatment of lapatinib and BGJ398
compound,measurement,setting,value
"CCCS(=O)(=O)Nc1ccc(F)c(C(=O)c2c[nH]c3ncc(-c4ccc(Cl)cc4)cc23)c1F [vemurafenib, N-(3-{[5-(4-chlorophenyl)-1H-pyrrolo[2,3-b]pyridin-3-yl]carbonyl}-2,4-difluorophenyl)propane-1-sulfonamide]",pAKT,[1],increase in pAKT
same,time to relapse following maximal response,"B-raf mutant melanoma; majority of patients, residual tumor",≤ 1 year
same,patients who respond,B-raf mutant melanoma; patients,majority
same,patients with tumor progression early in therapy,B-raf mutant melanoma; patients,10%
same,tumor volume,LOX-IMVI VemR tumors; vemurafenib alone,did not show a decrease in tumor volume
same,tumor volume,LOX-IMVI tumors; BID alone,tumor volume decreased; also recorded: sensitive
same,response to treatment,LOX-IMVI VemR cells; single agent alone,minimal response
same,effect on the cell line,"LOX-IMVI VemR cell line; 5 μM vemurafenib (PLX) alone, DMSO plot",not affected
HGF: secreted growth factor which promotes resistance to PLX4032,rescue of tumor cells from B-raf and MEK antagonists,[2],most broadly and potently
same,pathway activated in the presence of PLX4032,624 MEL cells,MAPK and AKT
same,rescue in the secreted factor screen,LOX-IMVI cells,rescued
"FGF2: secreted growth factor, FGFR ligand, promotes resistance",MAPK signalling in the presence of PLX4032,B-raf-mutant melanomas,activates MEK and ERK
same,downstream signalling,[3],sustained activation of downstream signalling
same,cell lines rescued by FGF2,[2]; 10 B-raf mutant melanoma cell lines,8 of the 10
same,rescue of tumor cells from B-raf and MEK antagonists,[2],most broadly and potently
same,melanoma lines with the V600E mutation rescued by FGF2,"[2]; subsequent analysis, n=30",50-70%
same,pathway activated in the presence of PLX4032,624 MEL cells,MAPK
same,rescue in the secreted factor screen,LOX-IMVI cells,rescued
same,cell lines rescued by FGF2,[4],7 of the 10
"CCN(CC)CCCCNc1ncc2cc(-c3cc(OC)cc(OC)c3)c(NC(=O)NC(C)(C)C)nc2n1 [PD173074, N-[2-[[4-(diethylamino)butyl]amino]-6-(3,5-dimethoxyphenyl)pyrido[2,3-d]pyrimidin-7-yl]-N′-(1,1-dimethylethyl)-urea]",effect on the cell line / resensitization to vemurafenib,LOX-IMVI VemR cell line,resensitized to vemurafenib; also recorded: affected
Cc1ccc(C(=O)Nc2ccc(CN3CCN(C)CC3)c(C(F)(F)F)c2)cc1C#Cc1cnc2cccnn12 [AP24534],effect on the cell line / resensitization to vemurafenib,LOX-IMVI VemR cell line,resensitized to vemurafenib; also recorded: affected
"FGF1: secreted factor, FGFR ligand",rescue in the secreted factor screen,LOX-IMVI cells,rescued
"CCN1CCN(c2ccc(Nc3cc(N(C)C(=O)Nc4c(Cl)c(OC)cc(OC)c4Cl)ncn3)cc2)CC1 [BGJ398, 3-(2,6-Dichloro-3,5-dimethoxy-phenyl)-1-{6-[4-(4-ethyl-piperazin-1-yl)-phenylamino]-pyrimidin-4-yl}-1-methyl-urea]",sensitization to lapatinib,HCC1569 cells,rescue the cell lines from drug resistance; also recorded: sensitizes
same,percent rescue from acquired resistance to lapatinib and FGF2,[5],greatest percent rescue
same,response to PLX4032,SK-MEL-24 cell line,augmented response
same,response to PLX4032,SK-MEL-3 cell line,augmented response
same,sensitization to lapatinib,MDA-MB-453 cells,rescue the cell lines from drug resistance; also recorded: sensitizes
same,tumor volume / efficacy,LOX-IMVI VemR tumors,did show a decrease in tumor volume
same,tumor volume / efficacy,LOX-IMVI VemR tumors; listed as NVP-BGJ398,potent efficacy
same,tumor volume,[6],decrease tumor volume; also recorded: Tumor volume decreases
same,re-emergence of tumors following the end of treatment,LOX-IMVI tumors; co-treatment with BGJ398 and vemurafenib,can be prevented
same,tumor volume,"LOX-IMVI tumors; BID and BGJ398 15 mg/kg, QD",tumor volume decreased
same,response to treatment,LOX-IMVI VemR cells; combination treatment of vemurafenib and BGJ398,high response
same,response to treatment,LOX-IMVI VemR cells; single agent alone,minimal response
same,effect on the cell line / resensitization to vemurafenib,LOX-IMVI VemR cell line,resensitized to vemurafenib; also recorded: affected
SCF: secreted growth factor which promotes resistance to PLX4032,pathway activated in the presence of PLX4032,624 MEL cells,AKT
